Data reported in US10597380B2, “Pyridazinone-based broad spectrum anti-influenza inhibitors” (Hoffmann-La Roche Inc., priority 2017, dated 2020).

Test system: Influenza A/WSN/33-Luciferase virus
Experiment: microbe, parasite or virus in culture
Type: cell-based
Details: A549, 72 h, luciferase signal three days later, read-out: IC50 antiviral activity (Luciferase reporter assay)

SMILES	IC50 [µM]
Cn1cccc(Nc2nn(-c3ccc(OC(F)(F)F)cc3)c(=O)c3c2CN(C=O)CC3)c1=O [Example 154, 4-[(1-Methyl-2-oxo-3-pyridyl)amino]-1-oxo-2-[4-(trifluoromethoxy)phenyl]-7,8-dihydro-5H-pyrido[3,4-d]pyridazine-6-carbaldehyde]	0.144
CCN1CCc2c(Nc3cccn(C)c3=O)nn(-c3ccc(OC(F)(F)F)cc3)c(=O)c2C1 [Example 158, 6-Ethyl-1-[(1-methyl-2-oxo-3-pyridyl)amino]-3-[4-(trifluoromethoxy)phenyl]-7,8-dihydro-5H-pyrido[3,4-d]pyridazin-4-one]	0.105
CC(O)(CN)Cn1cccc(Nc2nn(-c3ccc(OC(F)(F)F)cc3)c(=O)c3c2CCC3)c1=O (centres unmarked) [Example 166, 1-[[1-(3-Amino-2-hydroxy-2-methyl-propyl)-2-oxo-3-pyridyl]amino]-3-[4-(trifluoromethoxy)phenyl]-6,7-dihydro-5H-cyclopenta[d]pyridazin-4-one]	0.107
Cn1cccc(Nc2nn(-c3ccc(OC(F)F)cc3)c(=O)c3c2CCC3)c1=O [Example 59, 3-[4-(difluoromethoxy)phenyl]-1-[(1-methyl-2-oxo-3-pyridyl)amino]-6,7-dihydro-5H-cyclopenta[d]pyridazin-4-one]	0.137
CNC(=O)COCCn1cccc(Nc2nn(-c3ccc(OC(F)(F)F)cc3)c(=O)c3ccccc23)c1=O [Example 102, N-methyl-2-[2-[2-oxo-3-[[4-oxo-3-[4-(trifluoromethoxy)phenyl]phthalazin-1-yl]amino]-1-pyridyl]ethoxy]acetamide]	0.037
Cn1cccc(Nc2nn(-c3ccc(C(C)(C)C)nc3)c(=O)c3c2CCCC3)c1=O [Example 26, 2-(6-tert-butyl-3-pyridyl)-4-[(1-methyl-2-oxo-3-pyridyl)amino]-5,6,7,8-tetrahydrophthalazin-1-one]	0.025
Cn1cc(F)cc(Nc2nn(-c3ccc(OC(F)(F)F)cc3)c(=O)c3c2CCC3)c1=O [Example 31, 1-[(5-fluoro-1-methyl-2-oxo-3-pyridyl)amino]-3-[4-(trifluoromethoxy)phenyl]-6,7-dihydro-5H-cyclopenta[d]pyridazin-4-one]	0.008
CCc1ccc2c(=O)n(-c3ccc(OC(F)(F)F)cc3)nc(Nc3cccn(C)c3=O)c2c1 [Example 81, 6-ethyl-4-[(1-methyl-2-oxo-3-pyridyl)amino]-2-[4-(trifluoromethoxy)phenyl]phthalazin-1-one]	0.465
CC(C)N1CCc2c(Nc3cccn(C)c3=O)nn(-c3ccc(OC(F)(F)F)cc3)c(=O)c2C1 [Example 159, 6-Isopropyl-1-[(1-methyl-2-oxo-3-pyridyl)amino]-3-[4-(trifluoromethoxy)phenyl]-7,8-dihydro-5H-pyrido[3,4-d]pyridazin-4-one]	0.186
COCCOc1ccc2c(=O)n(-c3ccc(OC(F)(F)F)cc3)nc(Nc3cccn(C)c3=O)c2c1 [Example 136, 6-(2-Methoxyethoxy)-4-[(1-methyl-2-oxo-3-pyridyl)amino]-2-[4-(trifluoromethoxy)phenyl]phthalazin-1-one]	0.061
NS(=O)(=O)CCCn1cccc(Nc2nn(-c3ccc(OC(F)(F)F)cc3)c(=O)c3ccccc23)c1=O [Example 74, 3-[2-oxo-3-[[4-oxo-3-[4-(trifluoromethoxy)phenyl]phthalazin-1-yl]amino]-1-pyridyl]propane-1-sulfonamide]	0.034
O=c1c(Nc2nn(-c3ccc(OC(F)(F)F)cc3)c(=O)c3c2CCC3)cccn1C[C@@H]1CNCCO1 [Example 135, 1-[[1-[[(2S)-Morpholin-2-yl]methyl]-2-oxo-3-pyridyl]amino]-3-[4-(trifluoromethoxy)phenyl]-6,7-dihydro-5H-cyclopenta[d]pyridazin-4-one]	0.085
O=c1c(Nc2nn(-c3ccc(OC(F)(F)F)cc3)c(=O)c3c2CCC3)cccn1CCCO [Example 49, 1-[[1-(3-hydroxypropyl)-2-oxo-3-pyridyl]amino]-3-[4-(trifluoromethoxy)phenyl]-6,7-dihydro-5H-cyclopenta[d]pyridazin-4-one]	0.016
NCCn1cccc(Nc2nn(-c3ccc(OC(F)(F)F)cc3)c(=O)c3c2CCC3)c1=O [Example 130, 1-[[1-(2-Aminoethyl)-2-oxo-3-pyridyl]amino]-3-[4-(trifluoromethoxy)phenyl]-6,7-dihydro-5H-cyclopenta[d]pyridazin-4-one]	0.062
O=c1c(Nc2nn(-c3ccc(OC(F)(F)F)cc3)c(=O)c3c2CCC3)cncn1CCN1CCCC1 [Example 52, 1-[[6-oxo-1-(2-pyrrolidin-1-ylethyl)pyrimidin-5-yl]amino]-3-[4-(trifluoromethoxy)phenyl]-6,7-dihydro-5H-cyclopenta[d]pyridazin-4-one]	0.062
COCCCNC(=O)Cn1cccc(Nc2nn(-c3ccc(OC(F)(F)F)cc3)c(=O)c3ccccc23)c1=O [Example 94, N-(3-methoxypropyl)-2-[2-oxo-3-[[4-oxo-3-[4-(trifluoromethoxy)phenyl]phthalazin-1-yl]amino]-1-pyridyl]acetamide]	0.045

SMILES	IC50 [µM]
O=C(O)COCCn1cccc(Nc2nn(-c3ccc(OC(F)(F)F)cc3)c(=O)c3c2CCC3)c1=O [Example 119, 2-[2-[2-oxo-3-[[4-oxo-3-[4-(trifluoromethoxy)phenyl]-6,7-dihydro-5H-cyclopenta[d]pyridazin-1-yl]amino]-1-pyridyl]ethoxy]acetic acid]	3.76
Cn1cccc(Nc2nn(-c3ccc(OC(F)(F)F)cc3)c(=O)c3c2CCN(CCO)C3)c1=O [Example 147, 6-(2-Hydroxyethyl)-1-[(1-methyl-2-oxo-3-pyridyl)amino]-3-[4-(trifluoromethoxy)phenyl]-7,8-dihydro-5H-pyrido[3,4-d]pyridazin-4-one]	0.076
O=c1c(Nc2nn(-c3ccc(OC(F)(F)F)cc3)c(=O)c3ccccc23)cccn1CCO [Example 163, 4-[[1-(2-Hydroxyethyl)-2-oxo-3-pyridyl]amino]-2-[4-(trifluoromethoxy)phenyl]phthalazin-1-one]	0.062
O=C(Cn1cccc(Nc2nn(-c3ccc(OC(F)(F)F)cc3)c(=O)c3ccccc23)c1=O)N1CCOCC1 [Example 88, 4-[[1-(2-Morpholino-2-oxo-ethyl)-2-oxo-3-pyridyl]amino]-2-[4-(trifluoromethoxy)phenyl]phthalazin-1-one]	0.023
CN1CCc2c(Nc3cccn(C)c3=O)nn(-c3ccc(OC(F)(F)F)cc3)c(=O)c2C1 [Example 132, 6-Methyl-1-[(1-methyl-2-oxo-3-pyridyl)amino]-3-[4-(trifluoromethoxy)phenyl]-7,8-dihydro-5H-pyrido[3,4-d]pyridazin-4-one]	0.087
COC(=O)N1CCc2c(Nc3cccn(C)c3=O)nn(-c3ccc(OC(F)(F)F)cc3)c(=O)c2C1 [Example 153, Methyl 1-[(1-methyl-2-oxo-3-pyridyl)amino]-4-oxo-3-[4-(trifluoromethoxy)phenyl]-7,8-dihydro-5H-pyrido[3,4-d]pyridazine-6-carboxylate]	0.061
O=C(O)[C@H]1CCCN1CCn1cccc(Nc2nn(-c3ccc(OC(F)(F)F)cc3)c(=O)c3ccccc23)c1=O [Example 116, (2R)-1-[2-[2-oxo-3-[[4-oxo-3-[4-(trifluoromethoxy)phenyl]phthalazin-1-yl]amino]-1-pyridyl]ethyl]pyrrolidine-2-carboxylic acid]	0.261
O=c1c(Nc2nn(-c3ccc(OC(F)(F)F)cc3)c(=O)c3c2CCC3)cccn1CCN1CC(O)C1 [Example 46, 1-[[1-[2-(3-hydroxyazetidin-1-yl)ethyl]-2-oxo-3-pyridyl]amino]-3-[4-(trifluoromethoxy)phenyl]-6,7-dihydro-5H-cyclopenta[d]pyridazin-4-one]	0.033
Cc1ncc(Nc2nn(-c3ccc(OC(F)(F)F)cc3)c(=O)c3ccccc23)c(=O)[nH]1 [Example 65, 4-[(2-methyl-6-oxo-1H-pyrimidin-5-yl)amino]-2-[4-(trifluoromethoxy)phenyl]phthalazin-1-one]	0.405
Cn1cccc(Nc2nn(-c3ccc(OC(F)(F)F)cc3)c(=O)c3c2CCN(CC(C)(C)O)C3)c1=O [Example 146, 6-(2-Hydroxy-2-methyl-propyl)-1-[(1-methyl-2-oxo-3-pyridyl)amino]-3-[4-(trifluoromethoxy)phenyl]-7,8-dihydro-5H-pyrido[3,4-d]pyridazin-4-one]	0.167
Cn1cccc(Nc2nn(-c3ccc(OC(F)(F)F)cc3)c(=O)c3cc(N)ccc23)c1=O [Example 142, 7-Amino-4-[(1-methyl-2-oxo-3-pyridyl)amino]-2-[4-(trifluoromethoxy)phenyl]phthalazin-1-one]	0.046
CN(C)CCn1cncc(Nc2nn(-c3ccc(OC(F)(F)F)cc3)c(=O)c3c2CCC3)c1=O [Example 50, 1-[[1-[2-(dimethylamino)ethyl]-6-oxo-pyrimidin-5-yl]amino]-3-[4-(trifluoromethoxy)phenyl]-6,7-dihydro-5H-cyclopenta[d]pyridazin-4-one]	0.028
COc1ccc(-n2nc(Nc3cc(F)cn(C)c3=O)c3c(c2=O)CCC3)cn1 [Example 57, 1-[(5-fluoro-1-methyl-2-oxo-3-pyridyl)amino]-3-(6-methoxy-3-pyridyl)-6,7-dihydro-5H-cyclopenta[d]pyridazin-4-one]	0.352
CC(C)(C)OC(=O)NCCn1cccc(Nc2nn(-c3ccc(OC(F)(F)F)cc3)c(=O)c3c2CCC3)c1=O [Example 45, tert-butyl N-[2-[2-oxo-3-[[4-oxo-3-[4-(trifluoromethoxy)phenyl]-6,7-dihydro-5H-cyclopenta[d]pyridazin-1-yl]amino]-1-pyridyl]ethyl]carbamate]	0.286
CN(C)C(=O)CCCn1cccc(Nc2nn(-c3ccc(OC(F)(F)F)cc3)c(=O)c3ccccc23)c1=O [Example 98, N,N-dimethyl-4-[2-oxo-3-[[4-oxo-3-[4-(trifluoromethoxy)phenyl]phthalazin-1-yl]amino]-1-pyridyl]butanamide]	0.01
Cn1cc(C(F)(F)F)cc(Nc2nn(-c3ccc(OC(F)(F)F)cc3)c(=O)c3c2CCC3)c1=O [Example 34, 1-[[1-methyl-2-oxo-5-(trifluoromethyl)-3-pyridyl]amino]-3-[4-(trifluoromethoxy)phenyl]-6,7-dihydro-5H-cyclopenta[d]pyridazin-4-one]	0.195
